Experimental findings from patent publication US20060160837A1, “Rapamycin compounds in the treatment of neurofibromatosis type 1” (The Brigham and Women's Hospital, Inc., priority 2004, published 2006) are described below.

Test [1] concerns tuberin phosphorylation at S-1798. The experiment in a line: Phosphorylation of immunoprecipitated tuberin at S-1798 in serum-starved Nf1-deficient MEFs. The class given is cell-based, mouse.
For test [2], the system named is S6K1 phosphorylation in NF1-/- Schwann cells. Briefly: S6K1 phosphorylation immunoblot in neurofibroma-derived NF1-/- Schwann cells. The class given is cell-based. The note with it: NF1-/- Schwann cells from human cutaneous and plexiform neurofibromas. As for the experimental part: Litter-mate matched MEFs or NIH3T3 cells were plated in serum-free media at a density of 1.0×10^6 cells/10-cm plate. After 18 hours, 200 nM insulin or 6 μM LPA was added. Where indicated, cells were pre-treated with DMSO, 20 nM rapamycin (Calbiochem), 200 nM Wortmannin (Sigma-Aldrich), or indicated concentrations of U0126 (Calbiochem) for 30-min. For amino acid withdrawal studies, cells were washed and media was replaced with D-PBS for the indicated times. Following stimulation, cells were lysed in 1% SDS boiling lysis buffer. Neurofibroma-derived patient matched NF1^+/− and NF1^−/− Schwann cells were isolated and cultured as previously described (Rosenbaum, et al., J. Neurosci. Res. 61:524-532 (2000); Serra, et al., Hum. Mol. Genet. 9:3055-3064 (2000)). Schwann cells were seeded at a concentration of 2.5×10^5 cells/6-cm plate in DMEM containing 0.1% serum without forskolin, insulin or heregulin and lysed as described above. […] Clarified lysates were normalized for protein levels and analyzed by Western blotting with the following antibodies: Phospho-p70S6K(T-389), Phospho-Tuberin (S-939), Phospho-Tuberin (T-1462), Phospho-Akt(S-473), Phospho-p44/42 Erk (T-202/Y-204) (Cell Signaling Technologies), Tuberin (C-20) (Santa Cruz Biotechnology), Protein Kinase Bα/AKT1, Actin, β-Tubulin (Sigma-Aldrich) and avian p90RSK1. […]
A general note: In western blotting, separated proteins are transferred to a membrane and probed.

The test system of test [3] is S6K1 phosphorylation at T-389 (readout of mTOR activation). The experiment in a line: S6K1 (T-389) phosphorylation immunoblot in serum-starved Nf1-deficient MEFs. Particulars: serum-deprived Nf1-null MEFs; pre-treatment 30 min; 20 nM rapamycin, 200 nM wortmannin, U0126. The test is classed as cell-based, mouse.
The test system of test [4] is tuberin phosphorylation at T-1462 and S-939. The experiment in a line: Tuberin phosphorylation at T-1462 and S-939, immunoblot in serum-starved Nf1-deficient cells. The class given is cell-based, mouse. Particulars: 200 nM wortmannin or U0126.
For test [5], the system named is MPNST cell lines from NF1 patients. The experiment in a line: MPNST proliferation studies (live cell count, trypan blue exclusion). The class given is cell-based. The note with it: Homo sapiens, 168 h; two MPNST cell lines from two NF1 patients; 7 days; rapamycin 0.01-100 nM.

SMILES strings stand for the structures.

Consider `N#CC(=C(/N)Sc1ccccc1N)/C(C#N)=C(\N)Sc1ccccc1N` [U0126], for which the “tuberin phosphorylation at S-1798 (basophilic RXRXXpS/T site)” value in test [1] is “suppressed”. Moreover, the S6K1 phosphorylation entry in test [2] is recorded as “blocked”. The “aberrant activation (phosphorylation) of S6K1” value in test [3] is reported as “suppressed S6K1 phosphorylation in these cells to a similar extent”. Moreover, the “tuberin phosphorylation at T-1462 and S-939” value in test [4] is recorded as “no effect”.

As usually defined, the IC50 is the concentration that gives 50% inhibition. For the compound `CO[C@H]1C[C@@H]2CC[C@@H](C)[C@@](O)(O2)C(=O)C(=O)N2CCCC[C@H]2C(=O)O[C@H]([C@H](C)C[C@@H]2CC[C@@H](O)[C@H](OC)C2)CC(=O)[C@H](C)/C=C(\C)[C@@H](O)[C@@H](OC)C(=O)[C@H](C)C[C@H](C)/C=C/C=C/C=C/1C` [rapamycin], the half-inhibitory concentration (IC50) in test [5] was 1 to 10 nM.
